Measurements as given in patent US8013187B2, “2-cyclopenten-1-one oxime derivatives inhibiting production of TNF-α” (Amorepacific Corporation, priority 2004, dated 2011).
Converted amounts (≈) assume the structure as drawn.

What was measured:
[1] = system: production of TNF-α in rat PBMCs; experiment: Inhibition of TNF-α production in rat PBMCs (LPS/IFN-γ stimulated, ELISA); assay type: cell-based; settings: PBMC; for IC50: rat PBMCs, LPS + IFN-γ, 18 hours; for inhibition at 3 µg/mL: @ 3 μg/ml
Description: (§1) Compounds of this invention were evaluated for their ability to inhibit the production of TNF-α in stimulated immune cells. […] Compounds of the present invention were evaluated for their therapeutic activity in animal models for inflammatory or immunological disorders. Also compounds of this invention were assayed for their ability to inhibit PDE4 isozymes.
Inhibition of TNF-α Production in Rat PBMCs: Compounds of the present invention were evaluated for their ability to inhibit the production of TNF-α in rat peripheral blood mononuclear cells (PBMCs) as described in the literature. [Exp. Geront. vol 37, 235-247 (2002)] In brief, 6 ml rat blood drawn from the abdominal vein as treated with ACD (acid/citrate/dextrose) was carefully added in a tube containing 6 ml Ficoll 1077, and the tube was centrifuged for 30 min at 1500 rpm (415 G) at room temperature. The cell fraction (middle fraction) was suspended in a 50 ml tube containing phosphate buffered saline (PBS). The tube was centrifuged for 5 min at 2000 rpm (737 G). The resulting pellet was suspended in 6 ml PBS and 6 ml Ficoll 1077, and centrifuged for 30 min at 1500 rpm (415 G) at room temperature to remove remaining plasma. The cell fraction was suspended in PBS and centrifuged for 5 min at 2000 rpm. Such a washing was repeated twice. Then the collected cells were suspended in 10 ml RPMI-1640 containing 10% FBS and further diluted to contain 4×10^6 cells per ml. The cell suspension was dispensed into a 96-well plate at 100 μl per well, which was pre-supplemented with 1 μl of either DMSO (placebo) or a DMSO stock solution containing a designated concentration of a compound of this invention. The plate was cultured for an hour at 37° C. under 5% CO2 and 95% O2. To each well, was added 100 μl RPMI-1640 containing 0.1 μg/ml LPS, 5 U/ml IFN-γ, and 10% FBS. Then the plate was subjected to a culture for 18 hours at 37° C. under 5% CO2 and 95% O2. An aliquot of the supernatant from each well was subjected to an ELISA assay to determine the TNF-α level in the well.

[2] = system: production of TNF-α in human PBMCs; experiment: Inhibition of TNF-α production in human PBMCs (ELISA); assay type: cell-based; settings: PBMC
Description: as §1
Inhibition of TNF-α Production in Human PBMCs: Compounds of the present invention were evaluated for their ability to inhibit the production of TNF-α in human PBMCs as described in the literature. [J. Med. Chem. vol 39, 3238-3240 (1996)] Blood was freshly drawn from healthy human subjects as treated with ACD to isolate human PBMCs according to the procedure employed for rat PBMCs. The employed assay method for the ELISA against human TNF-α was essentially identical to that for the rat TNF-α ELISA assay.

[3] = system: production of TNF-α in mice stimulated with LPS; experiment: In vivo inhibition of TNF-α production in mice stimulated with LPS; settings: Mus musculus, 2 h, LPS i.p., plasma at hour 2, read-out: % Inhibition of in vivo TNF-α production @ dose; for inhibition in vivo at 3 mg/kg: 3 mg/kg oral gavage
Description: [J. Pharmacol. Exp. Therapeut. vol 279, 1453-1461 (1996)] In brief, either a compound of the instant invention with vehicle or vehicle only (5% Tween 80) was administered by oral gavage (10 ml/kg body weight) at hour 0 to mice (Balb/C or ICR, 25˜30 g) fasted overnight. The mice were subjected to a peritoneal injection with […] LPS per mouse at hour 0.5, and blood was drawn from the abdominal vein at hour 2 following euthanasia with CO2. Then plasma separated from the drawn blood by centrifugation was subjected to an ELISA assay to measure the level of TNF-α.

SMILES	melting point [°C]	IC50 [1] [µg/mL]	also measured
N#Cc1cccc(C2=C(C3CCCC3)CCC2=NO)c1 [Example 12, 2-(3-cyanophenyl)-3-cyclopentyl-2-cyclopenten-1-one oxime]	180 to 182	0.1	IC50 [2]: 0.16 µg/mL (≈ 0.601 µM)
OCc1cccc(C2=C(C3CCCC3)CCC2=NO)c1 [Example 25, 3-cyclopentyl-2-(3-hydroxymethylphenyl)-2-cyclopenten-1-one oxime]	–	1.5	–
ON=C1CCC(C2CCCCC2)=C1c1ccc(F)c(F)c1 [Example 30, 3-cyclohexyl-2-(3,4-difluorophenyl)-2-cyclopenten-1-one oxime]	–	< 0.1	–
CCCCC1=C(c2ccc(F)cc2)C(=NO)CC1 [Example 33, 3-butyl-2-(4-fluorophenyl)-2-cyclopenten-1-one oxime]	115 to 116	2	–
CCCCC1=C(c2ccc(F)c(F)c2)C(=NO)CC1 [Example 34, 3-butyl-2-(3,4-difluorophenyl)-2-cyclopenten-1-one oxime]	–	0.3	–
CCCCC1=C(c2ccc(O)c(F)c2)C(=NO)CC1 [Example 41, 3-butyl-2-(3-fluoro-4-hydroxyphenyl)-2-cyclopenten-1-one oxime]	141 to 147	–	–
CCCCC1=C(c2cccc(C(F)(F)F)c2)C(=NO)CC1 [Example 58, 3-butyl-2-{3-(trifluoromethyl)phenyl}-2-cyclopenten-1-one oxime]	65 to 67	–	inhibition at 3 µg/mL ([1]; Rattus norvegicus): 59%
CCCCCC1=C(c2ccc(F)cc2)C(=NO)CC1 [Example 65, 2-(4-fluorophenyl)-3-pentyl-2-cyclopenten-1-one oxime]	101 to 102	~1	IC50 [2]: 1.2 µg/mL (≈ 4.59 µM)
CCCCCC1=C(c2ccccc2)C(=NO)CC1 [Example 66, 3-pentyl-2-phenyl-2-cyclopenten-1-one oxime]	110 to 111	1 to 3	inhibition in vivo at 3 mg/kg [3]: 45%
CCCCCC1=C(c2ccsc2)C(=NO)CC1 [Example 77, 3-pentyl-2-(3-thienyl)-2-cyclopenten-1-one oxime]	105 to 106	2.8	–
CCCC1=C(c2cccc([N+](=O)[O-])c2)C(=NO)CC1 [Example 80, 2-(3-nitrophenyl)-3-propyl-2-cyclopenten-1-one oxime]	–	0.2	inhibition in vivo at 3 mg/kg [3]: 95%
CC(C)CC1=C(c2ccc(F)cc2)C(=NO)CC1 [Example 85, 2-(4-fluorophenyl)-3-isobutyl-2-cyclopenten-1-one oxime]	154 to 157	0.77	–
CC(C)CC1=C(c2cccc(C#N)c2)C(=NO)CC1 [Example 89, 2-(3-cyanophenyl)-3-isobutyl-2-cyclopenten-1-one oxime]	138 to 140	0.09	–
CCCCCCCCCc1ccc(C2=C(CC(C)C)CCC2=NO)cc1F [Example 90, 2-(3-fluoro-4-n-nonylphenyl)-3-isobutyl-2-cyclopenten-1-one oxime]	85 to 86	–	–

Further lines, with some results ahead:

melting point [°C]	SMILES	IC50 [1] [µg/mL]	also measured
162 to 163	O=[N+]([O-])c1cccc(C2=C(C3CCCC3)CCC2=NO)c1 [Example 4, 3-cyclopentyl-2-(3-nitrophenyl)-2-cyclopenten-1-one oxime]	–	–
178 to 180	Cc1ccc(C2=C(C3CCCC3)CCC2=NO)cc1[N+](=O)[O-] [Example 5, 3-cyclopentyl-2-(4-methyl-3-nitrophenyl)-2-cyclopenten-1-one oxime]	–	inhibition at 0.3 µg/mL ([1]; Rattus norvegicus, @ 0.3 μg/ml): 66%
167 to 168	N#Cc1cc(C2=C(C3CCCC3)CCC2=NO)ccc1F [Example 13, 2-(3-cyano-4-fluorophenyl)-3-cyclopentyl-2-cyclopenten-1-one oxime]	0.4	inhibition in vivo at 0.3 mg/kg ([3]; 0.3 mg/kg oral gavage): 70%
177 to 179	C=Cc1ccc(C2=C(C3CCCC3)CCC2=NO)cc1 [Example 18, 3-cyclopentyl-2-(4-vinylphenyl)-2-cyclopenten-1-one oxime]	–	inhibition at 3 µg/mL ([1]; Rattus norvegicus): 78%
195 to 200	ON=C1CCC(C2CCCC2)=C1c1cccc2c1oc1ccccc12 [Example 19, 3-cyclopentyl-2-(4-dibenzofuranyl)-2-cyclopenten-1-one oxime]	1	–
164 to 165	CS(=O)(=O)c1cccc(C2=C(C3CCCC3)CCC2=NO)c1 [Example 23, 3-cyclopentyl-2-(3-methylsulfonylphenyl)-2-cyclopenten-1-one oxime]	1.2	–
207 to 209	ON=C1CCC(C2CCCC2)=C1c1cccc(O)c1 [Example 24, 3-cyclopentyl-2-(3-hydroxyphenyl)-2-cyclopenten-1-one oxime]	–	–
187 to 190	OCc1ccc(C2=C(C3CCCC3)CCC2=NO)cc1 [Example 26, 3-cyclopentyl-2-(4-hydroxymethylphenyl)-2-cyclopenten-1-one oxime]	–	–
173 to 176	ON=C1CCC(C2CCCCC2)=C1c1ccc(F)cc1 [Example 27, 3-cyclohexyl-2-(4-fluorophenyl)-2-cyclopenten-1-one oxime]	0.34	inhibition in vivo at 3 mg/kg [3]: 87%
201 to 202	O=[N+]([O-])c1cccc(C2=C(C3CCCCC3)CCC2=NO)c1 [Example 31, 3-cyclohexyl-2-(3-nitrophenyl)-2-cyclopenten-1-one oxime]	–	–
149 to 150	COc1cccc(C2=C(C3CCCCC3)CCC2=NO)c1 [Example 32, 3-cyclohexyl-2-(3-methoxyphenyl)-2-cyclopenten-1-one oxime]	0.49	inhibition in vivo at 3 mg/kg [3]: 92%
79 to 80	CCCCCC1=C(c2cccc([N+](=O)[O-])c2)C(=NO)CC1 [Example 71, 2-(3-nitrophenyl)-3-pentyl-2-cyclopenten-1-one oxime]	–	–
165 to 166	CCCC1=C(c2ccc(F)cc2)C(=NO)CC1 [Example 78, 2-(4-fluorophenyl)-3-propyl-2-cyclopenten-1-one oxime]	0.62	–
168 to 169	CCC1=C(c2ccc(F)cc2)C(=NO)CC1 [Example 81, 3-ethyl-2-(4-fluorophenyl)-2-cyclopenten-1-one oxime]	~3	–
170 to 171	CC1=C(c2ccc(F)cc2)C(=NO)CC1 [Example 83, 2-(4-fluorophenyl)-3-methyl-2-cyclopenten-1-one oxime]	~10	–
136 to 139	CC(C)CC1=C(c2ccc(F)c(F)c2)C(=NO)CC1 [Example 86, 2-(3,4-difluorophenyl)-3-isobutyl-2-cyclopenten-1-one oxime]	0.27	–
